Source: patent US20070049515A1, “Therapeutic agent for diabetes containing insulin resistance improving agent” (SANKYO COMPANY, LIMITED, priority 2005, published 2007)

Legend:
Assay type in all cases: in vivo, rat
[1] = system: Zucker diabetic fatty rats; assay: Intermittent administration of compound A (Example 2): blood glucose level, red blood cell count, heart weight; details: for blood glucose level: FIG. 4; for red blood cell count: FIG. 5; for heart weight: FIG. 6
Excerpt: Zucker diabetic fatty rats (9-week-old, from Charles River Laboratories Japan, Inc.) were used in the experiment. The rats were divided into 3 groups so that body weight, blood glucose level, and red blood cell count may each be uniform among the groups, and each of these groups served as a control group, an intermittent treatment group, or a continuous treatment group (n=4 to 5). Food (FR2, from Funabashi Nojo) and water were given ad libitum during the testing period. A 0.5% carboxymethyl cellulose (CMC) solution only was administered to the control group, and a CMC suspension of compound A was forcibly orally administered to the intermittent treatment group and continuous treatment group according to the regimen described below. For the intermittent treatment group, compound A was repeatedly given in a dose of 1 mg/kg once a day for one week before decreasing the administration thereof to twice a week to administer it for a further two weeks (dosing days: days 0 to 7, 10, 14, and 17). In this respect, the CMC solution was given on the days when compound A was not administered. For the continuous treatment group, 1 mg/kg was repeatedly administered once a day for three weeks. Blood was collected at days 0, 2, 5, 7, 9, 12, 14, 16, 19, and 21 when the start date of dosing was shown as day 0, using a capillary tube treated with heparin, and blood glucose level and blood cell parameters were determined using an autoanalyzer (blood glucose level: Glucoroder GX-T from A&T Corporation, blood cell parameters: KX-21N from Sysmex Corporation)

[2] = system: Zucker diabetic fatty rats; assay: Administration of the effective and low doses of compound A in combination (Example 1(a)): blood glucose level, red blood cell count, heart weight; details: for red blood cell count: FIG. 2; for heart weight: FIG. 3; for blood glucose level (mean) after the decrease to the low dose: oral once a day, from the 14th day on
Excerpt: Zucker diabetic fatty rats (9-week-old, from Charles River Laboratories Japan, Inc.) were used in the experiment. The rats were divided into 4 groups of 5 individuals each so that body weight, blood glucose level, and red blood cell count may each be uniform among the groups, and each of these groups served as a low-dose treatment group (Ia), a low-dose treatment group (Ib), a continuous treatment group, or a control group. Food (FR2, from Funabashi Nojo) and water were given ad libitum during the testing period. A 0.5% carboxymethyl cellulose (CMC) solution only was administered to the control group, and a CMC suspension of compound A was orally administered to all of the other groups, once a day in doses described below. For the low-dose treatment group (Ia), it was administered at 3 mg/kg for 2 weeks and then at a decreased dose of 0.03 mg/kg for a further 3 weeks. For the low-dose treatment group (Ib), it was administered at 3 mg/kg for 2 weeks and then at a decreased dose of 0.3 mg/kg for a further 3 weeks. For the continuous treatment group, 3 mg/kg was administered for 5 weeks. Blood was collected every 7 days from the start of administration using a capillary tube treated with heparin and EDTA, and blood glucose level and blood cell parameters were determined using an autoanalyzer (blood glucose level: Glucoroder GX-T from A&T Corporation), blood cell parameters: KX-21N from Sysmex Corporation).

[3] = system: Zucker diabetic fatty rats; assay: Cycle of one week full coverage followed by four weeks of reduced dosage (Example 1(b)); details: one week full coverage (3 mg/kg) followed by four weeks of reduced dosage (0.3 mg/kg)
[4] = continuous treatment group: 1 mg/kg orally once a day for three weeks
[5] = intermittent treatment group: 1 mg/kg once a day for one week, then twice a week for two weeks
[6] = continuous treatment group: 3 mg/kg orally once a day for 5 weeks
[7] = low-dose treatment group (Ia): 3 mg/kg for 2 weeks, then 0.03 mg/kg for 3 weeks
[8] = low-dose treatment group (Ib): 3 mg/kg for 2 weeks, then 0.3 mg/kg for 3 weeks

Q: `COc1ccc2nc(COc3ccc(CC4SC(=O)NC4=O)cc3)n(C)c2c1.Cl` (stereo not shown) [compound A, 5-[4-(6-methoxy-1-methyl-1H-benzimidazol-2-ylmethoxy)benzyl]thiazolidin-2,4-dione hydrochloride] was tested. Which blood glucose level [1, 4] did it give?
A: lowered to a normal range

Q: What about the “red blood cell count” value [1, 4] of the same compound?
A: hemodilution (a decrease in red blood cell count)

Q: And the heart weight [1, 4]?
A: marked increase in heart weight

Q: What about the blood glucose level [1, 5] of the same compound?
A: nearly the same level as that in the continuous treatment group

Q: And the “red blood cell count” value [1, 5]?
A: an increase in red blood cell count

Q: What about the heart weight [1, 5] of the same compound?
A: decreased in value compared to that in the continuous treatment group

Q: What about the blood glucose level ([2]; continuous treatment group: 3 mg/kg orally once a day for 5 weeks, FIG. 1) of the same compound?
A: lowered to a normal value

Q: What about the “red blood cell count” value [2, 6] of the same compound?
A: hemodilution (a decrease in red blood count)

Q: What about the heart weight [2, 6] of the same compound?
A: marked increase in heart weight

Q: What about the “blood glucose level (mean) after the decrease to the low dose” value ([2]; low-dose treatment group (Ia): 3 mg/kg for 2 weeks, then 0.03 mg/kg for 3 weeks, FIG. 1) of the same compound?
A: ≤ 300 mg/dL

Q: What about the “red blood cell count” value [2, 7] of the same compound?
A: recovered nearly to control level

Q: And the heart weight [2, 7]?
A: clearly decreased values compared to that in the continuous treatment group

Q: What about the “blood glucose level (mean) after the decrease to the low dose” value ([2]; low-dose treatment group (Ib): 3 mg/kg for 2 weeks, then 0.3 mg/kg for 3 weeks, FIG. 1) of the same compound?
A: ≤ 300 mg/dL

Q: And the “red blood cell count” value [2, 8]?
A: rapidly recovered in dose-dependent manner

Q: What about the heart weight [2, 8] of the same compound?
A: clearly decreased values compared to that in the continuous treatment group

Q: What about the “results (blood glucose level, red blood cell count, heart weight) compared with Example 1(a)” value [3] of the same compound?
A: Almost the same results to those described above
